Structures can show the parent of a compound that is named as a salt. Marks after values point to notes of the source that are not given here.
Key:
[1] = test system: mice; test: Anti-depressants activity in forced swimming test; assay type: in vivo; conditions: 60 min before testing
Protocol: Each mouse was placed in a 25 cm glass cylinder (10 cm diameter) containing 15 cm of water maintained at 22±1, and was forced to swim for 10 min. 24 hours later, the mouse was replaced into the cylinder and the total duration of immobility was recorded during the last 5 min of the 6-min testing period. Mice are judged immobile when they float in an upright position and make only small movements to keep their head above water. Test drugs were suspended in 3% Tween 80 solution, and administered orally (po) 60 min before the testing.

[2] = biological target: T1, human recombinant 5-HT2C receptor (Homo sapiens, UniProt P28335); test: Binding affinity for serotonin 5-HT2C receptor ([3H]Mesulergine); conditions: CHO-K1 membranes, 1.3 nM [3H]Mesulergine; read-out: binding affinity (IC50) 5-HT2C
T1 construct: purchased PerkinElmer
T1 sequence (P28335 33-458): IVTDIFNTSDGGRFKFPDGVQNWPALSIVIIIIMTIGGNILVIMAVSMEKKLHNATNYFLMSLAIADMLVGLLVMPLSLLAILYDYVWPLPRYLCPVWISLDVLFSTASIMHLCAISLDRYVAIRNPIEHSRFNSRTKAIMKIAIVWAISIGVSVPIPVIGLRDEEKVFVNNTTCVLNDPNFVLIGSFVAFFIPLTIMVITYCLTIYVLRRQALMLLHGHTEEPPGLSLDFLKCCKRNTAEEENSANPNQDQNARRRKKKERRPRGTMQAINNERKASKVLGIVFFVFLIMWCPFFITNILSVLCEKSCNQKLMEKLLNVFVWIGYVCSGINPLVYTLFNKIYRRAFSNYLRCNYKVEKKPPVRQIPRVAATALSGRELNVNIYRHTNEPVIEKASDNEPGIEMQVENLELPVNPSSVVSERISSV
Protocol: (§1) Receptor binding affinities of the compounds for serotonin receptors were measured by the method described in the literature (see [Park W K et al., Pharmacol Biochem Behav., 82(2), 361-372 (2005)].
(§2) The binding affinity (IC50) of a compound for the receptor was calculated by computerized nonlinear regression analysis (GraphPad Prism Program, San Diego, USA) using 7-8 varied concentrations of the compound run in duplicate tubes.
For serotonin 5-HT2C binding, frozen membranes from stable CHO-K1 cell line expressing the human recombinant 5-HT2C receptor (PerkinElmer, 4 μg/well), [^3H]Mesulergine (Amersham, 1.3 nM) and test compounds were added into 50 mM Tris-HCl (pH 7.4) buffer containing 0.1% ascorbic acid and 4 mM CaCl2. Nonspecific binding was determined using 100 μM mianserin. The incubations were performed for 60 min at 27, and these were terminated by rapid filtration through filtermate A glass fiber filter presoaked in 0.5% PEI.

[3] = biological target: T2, human recombinant serotonin 5-HT2A receptor (Homo sapiens, UniProt P28223); test: Binding affinity for serotonin 5-HT2A receptor ([3H]Ketanserin); conditions: CHO-K1 cells, 1 nM [3H]Ketanserin; read-out: binding affinity (IC50) 5-HT2A
T2 construct: purchased PerkinElmer Life and Analytical Sciences, USA; host or cells: CHO-K1 cells
Protocol: as §1
For serotonin 5-HT2A binding, an aliquot of human recombinant serotonin 5-HT2A receptor (PerkinElmer Life and Analytical Sciences, USA) expressed in CHO-K1 cells (5 μg/well) and 1 nM [^3H]Ketanserin (PerkinElmer) were used in the presence of mianserin (20 μM) as a nonspecific. The reaction mixture was incubated for 60 min […] 50 mM Tris-HCl (pH 7.4) buffer containing 4 mM CaCl2 and 0.1% ascorbic acid, and harvested through filtermate A glass fiber filter (Wallac, Finland) presoaked in 0.5% polyethyleneimine (PEI) by microbeta filtermate-96 harvester (PerkinElmer) to terminate the reaction, and then washed with ice cold 50 mM Tris-HCl buffer solution (pH 7.4). The filter was then covered with MeltiLex, sealed in a sample bag, dried in an oven. The radioactivity retained in the filter was finally counted using MicroBeta Plus (Wallac).
as §2

[4] = biological target: T3, human serotonin transporter (Homo sapiens, UniProt P31645); test: Binding affinity for serotonin transporter ([3H]Imipramine); conditions: HEK-293 membrane, 2 nM [3H]Imipramine; read-out: binding affinity Serotonin Transporter
T3 construct: purchased PerkinElmer; host or cells: HEK-293 cells
Protocol: For serotonin transporter binding assays, a reaction mixture with a final volume of 0.25 ml was prepared by mixing a test compound, human serotonin transporter membrane expressed in HEK-293 cells (PerkinElmer, 5 μg/well), [^3H] Imipramine (PerkinElmer, 2 nM) and 50 mM Tris-HCl (pH 7.4) buffer containing 120 mM NaCl and 5 mM KCl. The reaction mixture was incubated for 30 min at 27, and harvested through filtermate A glass fiber filter presoaked in 0.5% PEI with ice cold 50 mM Tris-HCl buffer (pH 7.4) containing 0.9% NaCl.

T2 sequence (P28223 whole entry): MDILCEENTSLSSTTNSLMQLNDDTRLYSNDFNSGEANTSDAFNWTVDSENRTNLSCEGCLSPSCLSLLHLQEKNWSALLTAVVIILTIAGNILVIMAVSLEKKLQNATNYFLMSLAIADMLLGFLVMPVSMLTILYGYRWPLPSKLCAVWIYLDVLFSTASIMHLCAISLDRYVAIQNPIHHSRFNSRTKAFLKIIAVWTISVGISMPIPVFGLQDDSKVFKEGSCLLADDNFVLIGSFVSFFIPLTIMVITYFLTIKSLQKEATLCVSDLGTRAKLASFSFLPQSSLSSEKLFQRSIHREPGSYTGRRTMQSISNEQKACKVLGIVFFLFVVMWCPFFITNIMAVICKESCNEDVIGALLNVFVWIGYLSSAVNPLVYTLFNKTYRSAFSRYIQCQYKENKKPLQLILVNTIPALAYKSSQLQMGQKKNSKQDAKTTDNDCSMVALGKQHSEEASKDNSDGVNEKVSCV
T3 sequence (P31645 whole entry): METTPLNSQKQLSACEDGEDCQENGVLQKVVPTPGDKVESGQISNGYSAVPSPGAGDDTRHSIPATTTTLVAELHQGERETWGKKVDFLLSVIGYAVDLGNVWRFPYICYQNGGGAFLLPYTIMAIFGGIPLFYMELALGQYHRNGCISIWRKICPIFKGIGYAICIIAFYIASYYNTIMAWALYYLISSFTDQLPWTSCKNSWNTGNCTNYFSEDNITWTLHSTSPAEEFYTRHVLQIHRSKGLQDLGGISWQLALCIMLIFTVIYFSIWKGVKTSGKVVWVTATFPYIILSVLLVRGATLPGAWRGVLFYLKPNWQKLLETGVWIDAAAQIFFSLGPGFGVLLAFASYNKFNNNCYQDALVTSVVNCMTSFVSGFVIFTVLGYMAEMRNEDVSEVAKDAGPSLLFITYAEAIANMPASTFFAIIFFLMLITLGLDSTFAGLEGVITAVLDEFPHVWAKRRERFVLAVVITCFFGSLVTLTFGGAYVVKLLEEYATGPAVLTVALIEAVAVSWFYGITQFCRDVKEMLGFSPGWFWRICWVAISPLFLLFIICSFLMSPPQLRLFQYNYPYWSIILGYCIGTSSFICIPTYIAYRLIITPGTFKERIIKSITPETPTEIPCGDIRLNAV

Row | Compound | Immobility in forced swimming test ([1]; 50 mg/kg po) | Immobility in forced swimming test ([1]; 100 mg/kg po) | IC50 [2] | IC50 [3] | Immobility in forced swimming test ([1]; 25 mg/kg po) | IC50 [4]
1 | CNCCC(Oc1ccc(C(F)(F)F)cc1)c1ccccc1 (centres unmarked) [Fluoxetine, reference compound] | 70.4^b % | 59.5^b % | – | – | – | –
2 | Cc1cccc(N2CCN(CCCNc3ncnc4c3nc(C)n4-c3ccc(Cl)cc3)CC2)c1C [Example 70, 9-(4-chlorophenyl)-N-(3-(4-(2,3-dimethylphenyl)piperazin-1-yl)propyl)-8-methyl-9H-purine-6-amine] | 53.34 ± 10.82% | – | 316 nM | 54.3 nM | 80.67 ± 12.19% | 43.8 nM
3 | CCc1nc2c(NCC(O)CN3CCN(c4cccc(C)c4C)CC3)ncnc2n1-c1ccc2c(c1)OCO2 (centres unmarked) [Example 40, 1-(9-(benzo[d][1,3]dioxol-5-yl)-8-ethyl-9H-purin-6-ylamino)-3-(4-(2,3-dimethylphenyl)piperazin-1-yl)propan-2-ol] | – | – | 713 nM | 125 nM | 98.20 ± 10.00% | 18 nM
4 | CCc1nc2c(NCCN3CCN(c4cccc(C)c4C)CC3)ncnc2n1-c1ccc(F)cc1 [Example 56, N-(2-(4-(2,3-dimethylphenyl)piperazin-1-yl)ethyl)-8-ethyl-9-(4-fluorophenyl)-9H-purine-6-amine] | 77.46 ± 12.27% | – | 76.5 nM | 7.5 nM | 71.41 ± 10.84% | 146 nM
5 | CCc1nc2c(NCCN3CCN(c4cccc(C)c4C)CC3)ncnc2n1-c1ccccc1 [Example 10, N-(2-(4-(2,3-dimethylphenyl)piperazin-1-yl)ethyl)-8-ethyl-9-phenyl-9H-purine-6-amine] | 80.58 ± 11.21% | – | 106 nM | 11 nM | 74.56 ± 14.08% | 161 nM
6 | Cc1cccc(N2CCN(CC(O)CNc3ncnc4c3nc(C(C)(C)C)n4C)CC2)c1C (centres unmarked) [Example 38, 1-(8-tert-butyl-9-methyl-9H-purin-6-ylamino)-3-(4-(2,3-dimethylphenyl)piperazin-1-yl)propan-2-ol] | 64.14 ± 10.74% | – | 1590 nM | 404 nM | 74.86 ± 9.75% | 19 nM
7 | Cc1cccc(N2CCN(CCCNc3ncnc4c3nc(-c3ccccc3)n4-c3ccc(F)cc3)CC2)c1C [Example 79, N-(3-(4-(2,3-dimethylphenyl)piperazin-1-yl)propyl)-9-(4-fluorophenyl)-8-phenyl-9H-purine-6-amine] | – | – | 303 nM | 43 nM | – | 67 nM
8 | Cc1cccc(N2CCN(CCCNc3ncnc4c3nc(-c3ccccc3)n4-c3ccc4c(c3)OCO4)CC2)c1C [Example 83, 9-(benzo[d][1,3]dioxol-5-yl)-N-(3-(4-(2,3-dimethylphenyl)piperazin-1-yl)propyl)-8-phenyl-9H-purine-6-amine] | – | – | 198 nM | 30 nM | 70.43 ± 6.15% | 42 nM
9 | Cc1cccc(N2CCN(CCCNc3ncnc4c3nc(-c3ccccc3)n4C)CC2)c1C [Example 23, N-(3-(4-(2,3-dimethylphenyl)piperazin-1-yl)propyl)-9-methyl-8-phenyl-9H-purine-6-amine] | – | – | 76 nM | 36 nM | 99.59 ± 6.34% | 106 nM
10 | CCc1nc2c(NCCCN3CCN(c4cccc(C)c4C)CC3)ncnc2n1-c1ccc2c(c1)OCO2 [Example 39, 9-(benzo[d][1,3]dioxol-5-yl)-N-(3-(4-(2,3-dimethylphenyl)piperazin-1-yl)propyl)-8-ethyl-9H-purine-6-amine] | – | – | 328 nM | 33 nM | 88.94 ± 5.41% | 21 nM
11 | Cc1cccc(N2CCN(CC(O)CNc3ncnc4c3nc(C)n4-c3ccc4c(c3)OCO4)CC2)c1C (centres unmarked) [Example 35, 1-(9-(benzo[d][1,3]dioxol-5-yl)-8-methyl-9H-purin-6-ylamino)-3-(4-(2,3-dimethylphenyl)piperazin-1-yl)propan-2-ol] | – | – | 789 nM | 106 nM | 87.36 ± 6.89% | 27 nM
12 | Cc1cccc(N2CCN(CCNc3ncnc4c3nc(-c3cccs3)n4-c3ccccc3)CC2)c1C.Cl [Example 91, N-(2-(4-(2,3-dimethylphenyl)piperazin-1-yl)ethyl)-9-phenyl-8-(thiophen-2-yl)-9H-purine-6-amine hydrochloride] | – | – | 141 nM | 28 nM | 89.19 ± 9.17% | 316 nM
13 | Cc1cccc(N2CCN(CCCNc3ncnc4c3nc(C)n4-c3ccc4c(c3)OCO4)CC2)c1C [Example 36, 9-(benzo[d][1,3]dioxol-5-yl)-N-(3-(4-(2,3-dimethylphenyl)piperazin-1-yl)propyl)-8-methyl-9H-purine-6-amine] | 86.77 ± 11.28% | – | 285 nM | 29 nM | 79.93 ± 13.23% | 4 nM
14 | CCc1nc2c(NCCCN3CCN(c4cccc(C)c4C)CC3)ncnc2n1-c1ccc2c(c1)OCCO2 [Example 45, 9-(2,3-dihydrobenzo[b][1,4]dioxin-6-yl)-N-(3-(4-(2,3-dimethylphenyl)piperazin-1-yl)propyl)-8-ethyl-9H-purine-6-amine] | – | – | 151 nM | 14 nM | 97.64 ± 7.25% | 49 nM
15 | Cc1cccc(N2CCN(CCNc3ncnc4c3nc(C)n4-c3ccc(F)cc3)CC2)c1C [Example 55, N-(2-(4-(2,3-dimethylphenyl)piperazin-1-yl)ethyl)-9-(4-fluorophenyl)-8-methyl-9H-purine-6-amine] | 78.41 ± 8.11% | – | 129 nM | 31.1 nM | 70.53 ± 11.73% | 518 nM
16 | Cc1cccc(N2CCN(CCCNc3ncnc4c3ncn4-c3ccc4c(c3)OCCO4)CC2)c1C [Example 41, 9-(2,3-dihydrobenzo[b][1,4]dioxin-6-yl)-N-(3-(4-(2,3-dimethylphenyl)piperazin-1-yl)propyl)-9H-purine-6-amine] | – | – | 224 nM | 16 nM | 105.95 ± 4.92% | 7 nM
17 | Cc1cccc(N2CCN(CCNc3ncnc4c3nc(-c3ccccc3)n4-c3ccccc3)CC2)c1C [Example 18, N-(2-(4-(2,3-dimethylphenyl)piperazin-1-yl)ethyl)-8,9-diphenyl-9H-purine-6-amine] | – | – | 216 nM | 28 nM | 89.98 ± 11.45% | 575 nM
18 | Cc1c(Cl)cccc1N1CCN(CCCNc2ncnc3c2nc(-c2ccccc2)n3-c2ccccc2)CC1 [Example 67, N-(3-(4-(3-chloro-2-methylphenyl)piperazin-1-yl)propyl)-8,9-diphenyl-9H-purine-6-amine] | – | – | 247 nM | 42 nM | – | 96 nM
19 | CSc1ccc(-n2c(C)nc3c(NCCN4CCN(c5cccc(C)c5C)CC4)ncnc32)cc1 [Example 85, N-(2-(4-(2,3-dimethylphenyl)piperazin-1-yl)ethyl)-8-methyl-9-(4-(methylthio)phenyl)-9H-purine-6-amine hydrochloride] | – | – | 70 nM | 9.6 nM | – | 362 nM

— US8785453B2, “Arylpiperazine-containing purine derivatives and uses thereof” (Green Cross Corporation, priority 2009, dated 2014)
